Laboratory results as given in US4332800A, “Cephem compounds” (Fujisawa Pharmaceutical Co., Ltd., priority 1979, dated 1982).
Converted amounts (≈) assume the structure as drawn.

Tests used:
Assay type in all cases: cell-based
S. marcescens 35 = experiment: Antimicrobial activity, minimal inhibitory concentration (agar streak) against S. marcescens 35; conditions: Serratia marcescens, 10^8 viable cells per ml, heart infusion agar, 37° C. for 20 hours
Experimental: (§1) Now in order to show the utility of the object compounds (I), test data on anti-microbial activity of a representative compound of the present invention are shown below.
(§2) One loopful of an overnight culture of each test strain in Trypticase-soy broth (10^8 viable cells per ml.) was streaked on heart infusion agar (HI-agar) containing graded concentrations of antibiotics, and the minimal inhibitory concentration (MIC) was expressed in terms of μg/ml after incubation at 37° C. for 20 hours.

B. subtilis ATCC 6633 = experiment: Antimicrobial activity, minimal inhibitory concentration (agar streak) against B. subtilis ATCC 6633; conditions: Bacillus subtilis, ATCC6633, 10^8 viable cells per ml, heart infusion agar, 37° C. for 20 hours
Experimental: as §1, §2

Ps. aeruginosa 2 = experiment: Antimicrobial activity, minimal inhibitory concentration (agar streak) against Ps. aeruginosa 2; conditions: Pseudomonas aeruginosa, 10^8 viable cells per ml, heart infusion agar, 37° C. for 20 hours
Experimental: as §1, §2

`CCO/N=C(\C(=O)NC1C(=O)N2C(C(=O)[O-])=C(C[n+]3ccccc3)CSC12)c1nsc(N)n1` (stereo not drawn) [(1)] showed an MIC (S. marcescens 35) of 1.56 µg/mL (≈ 3.19 µM), an MIC (B. subtilis ATCC 6633) of 0.78 µg/mL (≈ 1.59 µM) and an MIC (Ps. aeruginosa 2) of 3.13 µg/mL (≈ 6.39 µM).

`CCCO/N=C(\C(=O)NC1C(=O)N2C(C(=O)[O-])=C(C[n+]3ccccc3)CSC12)c1nsc(N)n1` (stereo not drawn) [(2)] gave an MIC (S. marcescens 35) of 3.13 µg/mL (≈ 6.22 µM), an MIC (B. subtilis ATCC 6633) of 0.39 µg/mL (≈ 0.774 µM) and an MIC (Ps. aeruginosa 2) of 12.5 µg/mL (≈ 24.8 µM).

For `CCO/N=C(\C(=O)NC1C(=O)N2C(C(=O)[O-])=C(C[n+]3ccc(C(N)=O)cc3)CSC12)c1nsc(N)n1` (stereo not drawn) [(3)], the MIC (S. marcescens 35) was 3.13 µg/mL (≈ 5.88 µM), the MIC (B. subtilis ATCC 6633) was 0.78 µg/mL (≈ 1.46 µM) and the MIC (Ps. aeruginosa 2) was 25 µg/mL (≈ 46.9 µM).
